The record followed here is patent US9296736B2 (priority 2010, dated 2016).

For this test, the target named is interaction between GST-hMDM2 (1-188) and biotinylated-p53 (1-83) (Homo sapiens (Human), UniProt Q00987). Kind of test: biochemical.
Chain of interaction between GST-hMDM2 (1-188) and biotinylated-p53 (1-83) (Q00987 1-188): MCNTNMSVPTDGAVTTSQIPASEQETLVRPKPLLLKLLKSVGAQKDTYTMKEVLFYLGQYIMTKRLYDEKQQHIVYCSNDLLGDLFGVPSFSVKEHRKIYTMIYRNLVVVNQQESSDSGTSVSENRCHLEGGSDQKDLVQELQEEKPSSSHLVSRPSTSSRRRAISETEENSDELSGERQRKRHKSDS

On to `CC[C@@H](CNS(=O)(=O)c1cccnc1)N1C(=O)[C@@](C)(CC(=O)O)C[C@H](c2cccc(Cl)c2)[C@H]1c1ccc(Cl)cc1` [Example 196, 2-((3R,5R,6S)-5-(3-chlorophenyl)-6-(4-chlorophenyl)-3-methyl-2-oxo-1-((S)-1-(pyridine-3-sulfonamido)butan-2-yl)piperidin-3-yl)acetic acid], for which the IC50 is < 1 nM.

By IC50 is commonly meant the concentration at which inhibition is half-maximal. A higher IC50 goes with a need for much substance.
